Some targets named below: AKT1; GNAI1; ETS2; PYGL.
Common to all, as to conditions: ASO

These antisense oligonucleotides have a phosphorothioate backbone; sugars and methylation of C are not fully specified. Bounds are passed on as bounds.
Further: test concentration or dose not given here.

For the sequence AAAATACTAAAGTTGAAT, the remaining target (mRNA or protein) (fraction of control) in the data set with AKT1 is 0.75. In the data set with GNAI1, AAACTAAAGTCATAAATA showed a remaining target (mRNA or protein) (fraction of control) not below 1. Turning to AAAGTTGAATGTTGTAAA, the remaining target (mRNA or protein) (fraction of control) in the data set with AKT1 came out at 0.9. For AACCAGGTCGTAGTCACT, the remaining target (mRNA or protein) (fraction of control) with GNAI1 is 0.45. With AACCCGTTGCACATCCAG, the remaining target (mRNA or protein) (fraction of control) with ETS2 is not below 1. With AAGTGCTACCGTGGAGAG, the remaining target (mRNA or protein) (fraction of control) with AKT1 was found to be 0.43. Regarding AATAGTCTGTGTGTGTCC, the remaining target (mRNA or protein) (fraction of control) with ETS2 is not below 1. In turn, AATCCTAAGTTGCCACTC returned a remaining target (mRNA or protein) (fraction of control) in the data set with GNAI1 of 0.4. The sequence ACAGCGTGGCTTCTCTCA came in with a remaining target (mRNA or protein) (fraction of control) in the data set with AKT1 of 0.88. For ACGTTCTTCTCCGAGTGC, the remaining target (mRNA or protein) (fraction of control) with AKT1 is 0.7. For ACTGCTTTGTATTGTTTA, in the data set with GNAI1, the remaining target (mRNA or protein) (fraction of control) is 0.94. Still for that read-out and setting: then AGAACAACTTTGGTCAAG, with 0.88. As for AGCCAATGAAGGTGCCAT, the remaining target (mRNA or protein) (fraction of control) with AKT1 came to 0.33. In the case of AGCCCTAATGATAGCAAT, the remaining target (mRNA or protein) (fraction of control) in the data set with GNAI1 is 0.33. In the case of AGCTGTCCGCACCGTTCT, the remaining target (mRNA or protein) (fraction of control) with ETS2 was not below 1. The same measure, in the same setting: as for AGGAGCGGGAGGAGGAGG, the figure is 0.87. On to AGTCTATCTTCAACCTCC, for which the remaining target (mRNA or protein) (fraction of control) with GNAI1 turned out to be 0.92. Regarding AGTCTGGATGGCGGTTGT, the remaining target (mRNA or protein) (fraction of control) with AKT1 is 0.51.

As for ATAAAGCCTTCTTCAGCA, the remaining target (mRNA or protein) (fraction of control) in the data set with GNAI1 turned out to be 0.78. Turning to ATCCGTCTCCAGTCCAGC, in the data set with ETS2, the remaining target (mRNA or protein) (fraction of control) worked out at 0.8. The sequence ATTCAAATAGTATGCTGC gave a remaining target (mRNA or protein) (fraction of control) in the data set with GNAI1 not below 1. In the case of ATTTCCTTTGTGTCCTTT, the remaining target (mRNA or protein) (fraction of control) with GNAI1 was 0.41.

ATTTGAACAACATAATAC came in with a remaining target (mRNA or protein) (fraction of control) with AKT1 of 0.89. Regarding CAAAGCCATCACCCTAAA, the remaining target (mRNA or protein) (fraction of control) with GNAI1 came out at 0.43. The sequence CAACCCTCCTTCACAATA gave a remaining target (mRNA or protein) (fraction of control) with AKT1 of 0.76. In the case of CAAGTCATTCAAATAGTA, the remaining target (mRNA or protein) (fraction of control) with GNAI1 is not below 1. The sequence CAAGTTGCTGCCTGGGAA showed a remaining target (mRNA or protein) (fraction of control) in the data set with ETS2 of 0.39.

In the data set with GNAI1, CAATTCCTGTAGTTTTCA gave a remaining target (mRNA or protein) (fraction of control) of 0.8. The sequence CACAGAGAAGTTGTTGAG returned a remaining target (mRNA or protein) (fraction of control) in the data set with AKT1 of 0.78. In turn, CACAGTTGGCGGAGTCAT registered a remaining target (mRNA or protein) (fraction of control) with ETS2 of 0.45. As for CACATTCTTAGTATCTGT, the remaining target (mRNA or protein) (fraction of control) with GNAI1 worked out at 0.85. The sequence CAGCGGTTCGCCCATGGCTG had a remaining target (mRNA or protein) (fraction of control) in the data set with PYGL of 0.98. Regarding CAGCTCCAGGAGAAACTG, in the data set with ETS2, the remaining target (mRNA or protein) (fraction of control) is not below 1.

As to CAGCTTTACCACCAATGATA, in the data set with PYGL, the remaining target (mRNA or protein) (fraction of control) is 0.29. In the data set with AKT1, CAGGGAGTCAGGGAGGGC displayed a remaining target (mRNA or protein) (fraction of control) of 0.87. On the same count and under the same terms, as for CATAATACACAATAACAA, the figure is 0.61.

CATGAACATAAATAAAGC had a remaining target (mRNA or protein) (fraction of control) with GNAI1 not below 1. In the data set with ETS2, CATGGTTGTTTCCTTCCC registered a remaining target (mRNA or protein) (fraction of control) not below 1. In the data set with ETS2, CATTCATGCCGAACCTCT returned a remaining target (mRNA or protein) (fraction of control) not below 1. As for CCACATTGGCCCCATCCATG, the remaining target (mRNA or protein) (fraction of control) with PYGL turned out to be 0.19.

The sequence CCACTATCTTTCCACAAT gave a remaining target (mRNA or protein) (fraction of control) with GNAI1 of 0.84. Turning to CCCAGAGAGATGACAGAT, the remaining target (mRNA or protein) (fraction of control) with AKT1 amounted to 0.54.

Sequence CCCATGTAAAATTCCAGAGA returned a remaining target (mRNA or protein) (fraction of control) with PYGL of 0.44.

CCCCATTCCCAGAGATACTC showed a remaining target (mRNA or protein) (fraction of control) with PYGL of 0.32. In the data set with AKT1, CCCTGTGCCCTGTCCCAG displayed a remaining target (mRNA or protein) (fraction of control) of 0.45.

In the data set with AKT1, CCGAAAGTGCCCTTGCCC came in with a remaining target (mRNA or protein) (fraction of control) of 0.44. In the data set with PYGL, CCGCCCCGCCGCGCCAGGAG yielded a remaining target (mRNA or protein) (fraction of control) not below 1.

In the case of CCGGGCTGAGTCACCAAA, the remaining target (mRNA or protein) (fraction of control) with GNAI1 was 0.31. In turn, CCTAAGCCCCTGGTGACA had a remaining target (mRNA or protein) (fraction of control) with AKT1 of 0.85. CCTGAGTTGTCACTGGGT: in the data set with AKT1, the remaining target (mRNA or protein) (fraction of control) was 0.51. CCTTCTGTTACTTTCAGT displayed a remaining target (mRNA or protein) (fraction of control) in the data set with GNAI1 of 0.75. For CGAAAAGGTCAAGTGCTA, the remaining target (mRNA or protein) (fraction of control) in the data set with AKT1 came out at 0.59.

CGGGCTGCGCAGAGAGCTGG: the remaining target (mRNA or protein) (fraction of control) in the data set with PYGL is 0.87. In the data set with AKT1, CGGTCCTCGGAGAACACA showed a remaining target (mRNA or protein) (fraction of control) not below 1. Turning to CTCCTCTTCTGAATAACC, the remaining target (mRNA or protein) (fraction of control) in the data set with GNAI1 came to 0.79. For the sequence CTCGCTGTCCACACACTC, the remaining target (mRNA or protein) (fraction of control) in the data set with AKT1 stood at 0.39. CTCTTCTATATCCAATCCAA: the remaining target (mRNA or protein) (fraction of control) with PYGL was 0.63. The same measure, in the same setting: then CTGCAAGTCCTGGGTTGCAG, with 0.49. Turning to CTGGCTGACAGAGTGAGG, the remaining target (mRNA or protein) (fraction of control) with AKT1 stood at 0.41.

For the origin of these results see the OligoGym collection.
